Test results from patent US6921774B2, “Compounds and their use as glycine transport inhibitors” (H. Lundbeck A/S, priority 2000, dated 2005).
Structures can show the parent of a compound that is named as a salt.

What follows are compounds tested against T1, human GlyT-1b (Homo sapiens, UniProt P48067) (assay: [3H]-Glycine uptake in cells transfected with human GlyT-1b). Conditions: 6 min pre-incubation, 10 nM 3H-glycine, 15 min, read-out: IC50 GlyT-1b (Inhibition of Glycine Transport by hGlyT-).
T1 construct: expressed in transfected cells
T1 sequence (P48067 1-652 isoform P48067-3): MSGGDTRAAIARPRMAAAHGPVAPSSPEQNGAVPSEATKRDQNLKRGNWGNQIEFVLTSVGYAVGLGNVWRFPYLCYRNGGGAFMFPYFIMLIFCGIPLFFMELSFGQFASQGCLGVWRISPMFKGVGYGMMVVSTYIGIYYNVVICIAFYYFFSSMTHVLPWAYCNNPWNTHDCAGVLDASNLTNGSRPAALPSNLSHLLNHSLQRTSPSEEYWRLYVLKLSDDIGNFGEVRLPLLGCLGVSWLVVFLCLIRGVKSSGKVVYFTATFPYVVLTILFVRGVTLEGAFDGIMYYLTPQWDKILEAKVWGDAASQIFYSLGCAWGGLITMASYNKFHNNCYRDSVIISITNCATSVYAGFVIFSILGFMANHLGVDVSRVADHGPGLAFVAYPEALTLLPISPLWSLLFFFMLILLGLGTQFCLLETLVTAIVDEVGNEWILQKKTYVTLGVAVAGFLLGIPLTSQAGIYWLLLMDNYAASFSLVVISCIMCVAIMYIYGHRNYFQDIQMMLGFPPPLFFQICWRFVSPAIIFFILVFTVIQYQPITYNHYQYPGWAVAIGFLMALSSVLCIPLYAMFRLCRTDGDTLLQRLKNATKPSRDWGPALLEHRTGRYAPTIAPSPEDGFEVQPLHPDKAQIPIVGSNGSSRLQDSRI
Assay type: cell-based
Experimental: The compounds of the invention were tested in a well-recognised and reliable test measuring glycine uptake:
Cells transfected with the human GlyT-1b were seeded in 96 well plates. Prior to the experiment the cells were washed twice in HBS (10 mM Hepes-tris (pH 7.4), 2.5 mM KCl, 1 mM CaCl2, 2.5 mM MgSO4,) and pre-incubated with test compound for 6 minutes. Afterwards, 10 nM ^3H-glycine was added to each well and the incubation was continued for 15 minutes. The cells were washed twice in HBS. Scintillation fluid was added and the Plates were counted on a Trilux (Wallac) scintillation counter.

IC50 [µM] | Compound
0.47 | C[C@@H](C(=O)O)N(C)CCCC1(c2ccc(Cl)cc2)CCc2cc(Cl)ccc21 (some centres unmarked) [Compound 3aa, N-{3-[5-Chloro-1-(4-chloro-phenyl)-indan-1-yl]-propyl}-N-methylalanine hydrochloride]
9.6 | Cc1ccc(C2(CCCN(C)CC(=O)O)OCc3ccc(Cl)cc32)cc1 (centres unmarked) [Compound 3n, N-{3-[6-chloro-1-(4-methylphenyl)-1,3-dihydroisobenzofuran-1-yl]-1-propyl}-N-methylglycine hydrochloride.]
1.5 | Cc1ccc(-c2ccc3c(c2)COC3(CCCN(C)CC(=O)O)c2ccc(Cl)cc2)cc1 (centres unmarked) [Compound 4d, N-{3-[1-(4-Chloro-phenyl)-5-(4-methyl-phenyl)-1,3-dihydro-isobenzofuran-1-yl]-propyl}-N-methyl-glycine]
1.1 | CN(CCCC1(c2ccc(Cl)cc2)CCc2cc(Cl)ccc21)CC(=O)O (centres unmarked) [Compound 3z, N-{3-[5-Chloro-1-(4-chloro-phenyl)-indan-1-yl]-propyl}-N-methylglycine hydrochloride]
5.7 | Cc1cc(C2(CCCN(C)CC(=O)O)OCc3cc(C#N)ccc32)ccc1F (centres unmarked) [Compound 3t, N-{3-[5-cyano-1-(3-methyl-4-fluorophenyl)-1,3-dihydroisobenzofuran-1-yl]-1-propyl}-N-methylglycine hydrochloride.]
0.71 | Cc1ccccc1-c1ccc2c(c1)COC2(CCN(C)CC(=O)O)c1ccc(Cl)cc1 (centres unmarked) [Compound 4j, N-{3-[1-(4-Chloro-phenyl)-5-(2-methyl-phenyl)-1,3-dihydro-isobenzofuran-1-yl]-ethyl}-N-methyl-glycine]
4.1 | CN(CCCC1(c2ccc(Cl)cc2)OCc2c(Cl)cccc21)CC(=O)O (centres unmarked) [Compound 3k, N-{3-[4-chloro-1-(4-chlorophenyl)-1,3-dihydroisobenzofuran-1-yl]-1-propyl}-N-methylglycine hydrochloride.]
7.2 | CN(CCCC1(c2ccc(Cl)cc2)OCc2ccc(Cl)cc21)CC(=O)O (centres unmarked) [Compound 3m, N-{3-[6-chloro-1-(4-chlorophenyl)-1,3-dihydroisobenzofuran-1-yl]-1-propyl}-N-methylglycine hydrochloride.]
3.5 | CN(CCC1(c2ccc(Cl)cc2)OC(C)(C)c2ccccc21)CC(=O)O (centres unmarked) [Compound 3af, N-{2-[1-(4-Chloro-phenyl)-3,3-dimethyl-1,3-dihydro-isobenzofuran-1-yl]-ethyl}-N-methylglycine]
0.95 | CN(CCC1(c2ccc(Cl)cc2)OCc2cc(-c3cc(Cl)ccc3Cl)ccc21)CC(=O)O (centres unmarked) [Compound 4k, N-{3-[1-(4-Chloro-phenyl)-5-(2,5-dichloro-phenyl)-1,3-dihydro-isobenzofuran-1-yl]-ethyl}-N-methyl-glycine]
2.2 | Cc1ccc(-c2ccc3c(c2)COC3(CCN(C)CC(=O)O)c2ccc(Cl)cc2)cc1 (centres unmarked) [Compound 3al, N-{3-[1-(4-Chloro-phenyl)-5-(4-methyl-phenyl)-1,3-dihydro-isobenzofuran-1-yl]-ethyl}-N-methyl-glycine]
2.2 | N-[2-(3-methyl-1-phenyl-indan-1-yl)-ethyl]-amino}-N-methyl alanine [Compound 3ak]
5.5 | C[C@@H](C(=O)O)N(C)CCCC1(c2ccc(Cl)cc2)OCc2cc(Cl)ccc21 (some centres unmarked) [Compound 3l, N-{3-[5-chloro-1-(4-chlorophenyl)-1,3-dihydroisobenzofuran-1-yl]-1-propyl}-N-methylalanine hydrochloride]
4 | CN(CCCC1(c2ccc(Cl)cc2)OCc2cc(Br)ccc21)CC(=O)O (centres unmarked) [Compound 3ae, N-{3-[5-Bromo-1-(4-chlorophenyl)-1,3-dihydroisobenzofuran-1-yl]-1-propyl}-N-methylglycine]
8.6 | COc1ccc(C2(CCCN(C)CC(=O)O)OCc3cc(C#N)ccc32)cc1 (centres unmarked) [Compound 3v, N-{3-[5-cyano-1-(4-methoxyphenyl)-1,3-dihydroisobenzofuran-1-yl]-1-propyl}-N-methylglycine hydrochloride]
1.2 | CN(CCC1(c2ccc(Cl)cc2)OCc2cc(-c3cccs3)ccc21)CC(=O)O (centres unmarked) [Compound 4c, N-{3-[1-(4-Chloro-phenyl)-5-(2-thiophenyl)-1,3-dihydro-isobenzofuran-1-yl]-ethyl}-N-methyl-glycine]

Compound | IC50 [µM]
N-{3-[1-(4-methylphenyl)-1,3-dihydroisobenzofuran-1-yl]-1-propyl}-N-methylglycine. hydrochloride [Compound 3f] | 5.4
